Entries after “also recorded” stand apart in the source; their conditions may differ. Values belong to the compound of their own block, whether it stands above or below them. Where a SMILES comes first, the peptide text is derived from it. Where no end group is shown, it is not given here. The star is where a group is joined. Cbz = O=C(OCc1ccccc1)*; CH2F = FC*
How the values were obtained:
[1] = system: platelet number in mouse peripheral blood; assay: Platelet number in mouse peripheral blood after Etoposide; type: in vivo, C57BL/6J mice; details: Etoposide 150 mg/kg i.p., for 48 hrs
Protocol: Percentage of platelets in C57BL/6J mice compared to before treatment (100%). […] The statistical significance was determine by an unpaired student t test, *P<0.05, **P<0.01, ***, P<0.001.
Mouse blood (50-100 micro 1) was collected by heparin-coated capillary tube from tail, and the samples were incubated at room temperature for 1 hr before blood cell analysis using HEMA VET blood cell counter (Drew Scientific Inc. Oxford, Conn.). Each blood sample was measured twice, and the mean value of two measurements was used as one sample data (n=1).

cell membrane = assay: Cell membrane permeability and retention of peptides in cells (description); type: cell-based; details: for cell membrane permeability: need of a cell delivery system
[2] = system: primary cultured mouse megakaryocytes; assay: Platelet formation in vitro (Integrin αIIB positive platelet like particles, flow cytometry); type: cell-based; details: 48 h; VPTLK 200 μM; Z-VAD-fmk 200 and 400 μM; FIG. 5B
Protocol: After the pre-incubation with the peptides, 1 mM EDTA and 50 ng/ml prostaglandin E1 (Sigma) dissolved in ethanol were added to the cell culture before the centrifugation (700 g) at room temperature (RT) for 10 min. The platelets were washed with 300 μl of tyrodes buffer (pH 7.4) containing 2.5 mg/ml BSA and 1 mg/ml glucose. Then 2 μl of anti CD16/anti CD32 (BD Phaminogen™) was added to the platelets. The platelets were incubated at RT for 10 min. The platelets were divided into 3 sets, and 2 μl of rat IgG1 κ phycoerythrin (PE) labeled isotype control (Pharmingen) was added to one sample, and 2 μl of PE labeled antibody of intregin αIIB PE (Santa Cruz) was added to the other two samples. The platelets were incubated at RT for 30 min. Finally, 5 μl of Flow-Count™ Fluorospheres (Beackman-Coulter™) was added to the sample as platelet size marker. The platelets were detected with a FACScan flow cytometer system (Becton Dickinson; BD LSRII) using cellquest software. Each point in the figures showing percent apoptosis represents the mean±SEM of three experiments.

[3] = biological target: T1, interaction of Ku70 and Bax (Homo sapiens, UniProt Q07812); assay: Inhibition of the interaction of Ku70 and Bax in cell lysates; type: binding; details: negative controls; lysates from human cultured cells
T1 construct: lysates prepared from human cultured cells (HeLa cells and human kidney epithelial 293 cells); endogenous in cells; host or cells: HeLa cells; human kidney epithelial 293 cells
Protocol: The Bax-binding domain in Ku70 comprises 6 amino acids (VPMLKE, SEQ ID NO: 1). This peptide (Ku70 Peptide) inhibits the interaction of Ku70 and Bax at the concentration of 20-80 μM in lysates prepared from human cultured cells (HeLa cells and human kidney epithelial 293 cells).

[4] = Preliminary toxicity study in mice; type: in vivo; details: 166.5 mg/kg i.p. and 16.5 mg/kg i.v.t.
Protocol: Importantly, we also obtained a preliminary result showing that BIP pre-treatment attenuated Etoposide-induced platelet decrease in mouse model. To develop the technology protecting megakaryocytes from chemotherapy, further extensive animal studies are needed. […] We examined doses of 166.5 mg/kg by i.p. and 16.5 mg/kg by i.v.t. […] The dose of 166.5 mg/kg is expected to achieve 300 μM of BIP in whole mouse body, if a mouse body is assumed to be filled with water. Probably, much less amount of BIP is sufficient to achieve effective doses (50-400 μM) (Sawada, M., P. Hayes, and S. Matsuyama, Cytoprotective membrane-permeable peptides designed from the Bax-binding domain of Ku70. Nat Cell Biol, 2003. 5(4): p. 352-7; Yoshida, T., et al., Bax-inhibiting peptide derived from mouse and rat Ku70. Biochem Biophys Res Commun, 2004. 321(4): p. 961-6; Yu, L. Y., et al., GDNF-deprived sympathetic neurons die via a novel nonmitochondrial pathway. J Cell Biol, 2003. 163(5): p. 987-97; Qin, Q., K. Patil, and S. C. Sharma, The role of Bax-inhibiting peptide in retinal ganglion cell apoptosis after optic nerve transection. Neurosci Lett, 2004. 372(1-2): p. 17-21) in blood or a specific tissue.

T1 sequence (Q07812 whole entry): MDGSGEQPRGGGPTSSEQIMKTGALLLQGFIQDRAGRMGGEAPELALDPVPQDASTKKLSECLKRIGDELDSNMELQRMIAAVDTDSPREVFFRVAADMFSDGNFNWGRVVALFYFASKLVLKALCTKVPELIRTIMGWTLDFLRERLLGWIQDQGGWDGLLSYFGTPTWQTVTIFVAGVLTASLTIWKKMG

Compound: COC(=O)CC(NC(=O)C(C)NC(=O)C(NC(=O)OCc1ccccc1)C(C)C)C(=O)CF (stereo not drawn) [Z-VAD-fmk, Benzyloxycarbonyl-Val-Ala-Asp (OMe) fluoromethylketone] (Cbz-Val-Ala-Asp(OMe)-CH2F; configuration not given here)
platelet like particles formation [2]: slightly decreased platelet like particles formation

Compound: Ku70 Peptide NC: the immediate next six amino acid sequence of Ku70, negative control (LGKFTV; UniProt P12956 573-578, looked up, fragment)
effect on the interaction of Ku70 and Bax [3]: did not affect the interaction of Ku70 and Bax

Compound: VPMLKE [VPMLKE]
cell membrane permeability (cell membrane): a cell delivery system, such as liposomes as in the case of VPMLKE

Compound: VPTLK [VPTLK]
survival after the injection [4]: more than 3 months
toxicity in mice ([4]; preliminary study, listed as BIP): did not show any toxicity; also recorded: did not show any sign of illness

Second part, the compound after the results:

platelet count in the peripheral blood after Etoposide alone [1]: slight decrease of platelet count
Compound: COc1cc([C@@H]2c3cc4c(cc3[C@@H](O[C@@H]3O[C@@H]5CO[C@@H](C)O[C@H]5[C@H](O)[C@H]3O)[C@H]3COC(=O)[C@H]23)OCO4)cc(OC)c1O [Etoposide]

retention in the cell (cell membrane): not retained in the cell
cell membrane permeability (cell membrane): cell membrane permeable
Compound: CSCC[C@H](NC(=O)[C@@H]1CCCN1)C(=O)N[C@@H](CC(C)C)C(=O)N[C@@H](CCCCN)C(=O)O [PMLK] (H-PMLK-OH; N-terminus and C-terminus assumed)

cell membrane permeability (cell membrane): cell membrane permeable
Compound: PMLKE [PMLKE]

cell membrane permeability (cell membrane): cell membrane permeable
Compound: VPALR [VPALR]

cell membrane permeability (cell membrane): cell membrane permeable
Compound: VPMLK [VPMLK]

From patent US8183342B2, “Method of treating chemotherapy-induced thrombocytopenia” (Case Western Reserve University, priority 2007, dated 2012)
